# Measurements as given in PMC6286348, “Inhibitor binding mode and allosteric regulation of Na^+-glucose symporters” (Nature Communications, 2018).
# Where a chain is given by its changes, count along the chain named.
# Key:
# hSGLT1 wild-type = target: T1, hSGLT1 wild-type (Homo sapiens, UniProt P13866); assay: SGLT current measurement (two electrode voltage clamp) in oocytes, hSGLT1 wild-type; type: cell-based; conditions: apparent affinity from αMDG current vs external Na^+, 10 mM αMDG, 22 °C
# T1 construct: expressed in transfected cells; host or cells: Xenopus laevis oocytes injected with cRNA
# T1 sequence (P13866 1-664): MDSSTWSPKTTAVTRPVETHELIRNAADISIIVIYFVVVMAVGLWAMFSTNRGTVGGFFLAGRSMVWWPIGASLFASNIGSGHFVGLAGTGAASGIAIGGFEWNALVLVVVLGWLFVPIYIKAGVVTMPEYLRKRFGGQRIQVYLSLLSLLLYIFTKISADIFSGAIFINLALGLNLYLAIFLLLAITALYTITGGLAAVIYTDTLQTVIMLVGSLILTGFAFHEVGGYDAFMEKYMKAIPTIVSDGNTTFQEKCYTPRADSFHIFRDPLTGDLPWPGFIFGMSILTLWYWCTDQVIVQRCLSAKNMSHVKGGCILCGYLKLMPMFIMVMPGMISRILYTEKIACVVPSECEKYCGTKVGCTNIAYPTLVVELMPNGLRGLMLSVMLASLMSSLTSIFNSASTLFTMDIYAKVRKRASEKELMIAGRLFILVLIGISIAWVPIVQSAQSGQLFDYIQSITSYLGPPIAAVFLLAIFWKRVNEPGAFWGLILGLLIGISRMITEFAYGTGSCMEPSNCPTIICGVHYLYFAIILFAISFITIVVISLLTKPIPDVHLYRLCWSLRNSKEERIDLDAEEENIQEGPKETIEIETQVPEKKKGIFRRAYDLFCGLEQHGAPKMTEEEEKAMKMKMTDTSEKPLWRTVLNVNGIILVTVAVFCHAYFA
# Protocol: (§1) Xenopus laevis (Nasco) oocytes (V–VI) were prepared as previously described[20] and injected with 50 nl of cRNA (1 μg/μl). […] Briefly, oocytes were incubated for 30 min in the presence of 50 μM αMDG (5 μM [^14C]αMDG) in a buffer containing (in mM) 100 NaCl, 2 KCl, 1 MgCl2, 1 CaCl2, and 10 N-(2-hydroxyethyl)piperazine-N′-(2-ethanesulfonic acid) (HEPES)/Tris (pH 7.5). After incubation, oocytes were rinsed thoroughly with ice-cold buffer containing (mM) 100 choline Cl^–, 2 KCl, 1 MgCl2, 1 CaCl2, and 10 HEPES/Tris (pH 7.5), individually lysed with 5% sodium dodecyl sulfate, and assayed for radioactivity.
# (§2) Injected oocytes were incubated at 18 °C, and after 3–4 days, two electrode voltage clamp experiments were performed as previously described. Briefly, SGLT inward glucose currents were measured as a function of the external Na^+ (0–100 mM NaCl), sugar (0–100 mM αMDG), and inhibitors (0.001–100 μM). Steady-state and hSGLT1 capacitive currents were recorded using voltage steps from a holding voltage, Vh of −60 mV, to voltages in the range of −180 to +50 mV in 20 mV increments. The apparent affinity of αMDG, K0.5, was estimated from plots of the inward current as a function of the external αMDG concentration. […] The Na^+-to-αMDG stoichiometry was determined from the reversal potential measurements using the Gibbs free energy as previously described. […]
# hSGLT1 D268H = target: T2, hSGLT1 D268H (Homo sapiens, UniProt P13866, D268H); assay: SGLT current measurement in oocytes, hSGLT1 D268H; type: cell-based; conditions: 10 mM αMDG, Vm = −50 mV; oocytes, 22 °C
# T2 construct: expressed in transfected cells; host or cells: Xenopus laevis oocytes injected with cRNA
# T2 sequence (P13866 1-664 D268H): T1 sequence (P13866 1-664) with D268H
# Protocol: as §1, §2
# hSGLT1 S393A/C = tested on: hSGLT1 S393A/C; parameters: method as in PMID 22159082; conditions: oocytes, 22 °C; cited from earlier work
smiles,measurement,setting,value
[Na+] [Na^+],K0.5 Na^+,hSGLT1 wild-type,36 ± 1 mM
same,K0.5 Na^+,hSGLT1 D268H,17 ± 1.2 mM
same,K0.5 Na^+,hSGLT1 S393A/C,32 ± 3[20] mM
